Assay results from PMC6695897, “Synthesis and In Vitro Screening of Novel Heterocyclic β-D-Gluco- and β-D-Galactoconjugates as Butyrylcholinesterase Inhibitors” (Molecules, 2019).
Like-named read-outs stand apart in the source and are kept apart here.

Target: T1, horse serum butyrylcholinesterase (BChE) (Equus caballus, UniProt P81908)
T1 construct: native enzyme from horse serum, lyophilised, commercial (Sigma-Aldrich), untagged
Test: Ellman assay, global fit to mixed inhibition model
Type: biochemical
Conditions: for Ki: read-out: Ki ± SEM (μM) ^1
From the text: Ellman assay, global fit to mixed inhibition model on horse serum butyrylcholinesterase (BChE)

T1 sequence (P81908 whole entry): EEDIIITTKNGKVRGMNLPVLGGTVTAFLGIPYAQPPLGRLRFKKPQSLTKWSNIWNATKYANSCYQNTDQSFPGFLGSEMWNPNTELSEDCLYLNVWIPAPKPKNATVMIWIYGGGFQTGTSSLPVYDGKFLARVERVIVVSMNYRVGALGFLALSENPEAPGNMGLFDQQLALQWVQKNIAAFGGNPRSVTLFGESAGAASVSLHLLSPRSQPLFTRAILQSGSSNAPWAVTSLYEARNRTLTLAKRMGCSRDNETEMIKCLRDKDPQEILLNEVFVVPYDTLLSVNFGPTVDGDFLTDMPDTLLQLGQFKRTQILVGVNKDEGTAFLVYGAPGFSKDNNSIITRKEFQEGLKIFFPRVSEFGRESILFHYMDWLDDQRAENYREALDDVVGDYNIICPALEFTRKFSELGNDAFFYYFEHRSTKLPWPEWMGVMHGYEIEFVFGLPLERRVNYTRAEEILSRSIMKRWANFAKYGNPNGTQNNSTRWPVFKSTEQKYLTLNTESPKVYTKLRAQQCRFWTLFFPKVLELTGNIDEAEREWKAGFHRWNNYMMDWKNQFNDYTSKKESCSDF

OC[C@H]1O[C@@H](OCCn2cnc3ccccc32)[C@H](O)[C@@H](O)[C@@H]1O [compound 5, N1-[2-(β-D-glucopyranozyloxy)ethyl]benzimidazole]
Ki (acetylthiocholine 0.04–1 mM, DTNB 0.3 mM, 0.1 M sodium phosphate pH 7.4, 25 °C, mixed): 16 ± 1.6 µM

OC[C@H]1O[C@@H](OCC[n+]2cn(Cc3ccccc3)c3ccccc32)[C@H](O)[C@@H](O)[C@@H]1O [compound 7, N1-benzyl-N3-[2-(β-D-glucopyranozyloxy)ethyl]benzimidazolium bromide]
Ki: 52 ± 3 µM

OC[C@H]1O[C@@H](OCCn2cnc3ccccc32)[C@H](O)[C@@H](O)[C@H]1O [compound 12, N1-[2-(β-D-galactopyranozyloxy)ethyl]benzimidazole]
Ki ± SEM (μM) ^1 (acetylthiocholine 0.04–1 mM, DTNB 0.3 mM, 0.1 M sodium phosphate pH 7.4, 25 °C, unreliable (extrapolated beyond tested 15–170 μM)): 782 ± 306 µM

OC[C@H]1O[C@@H](OCC[n+]2cn(Cc3ccccc3)c3ccccc32)[C@H](O)[C@@H](O)[C@H]1O [compound 14, N1-benzyl-N3-[2-(β-D-galactopyranozyloxy)ethyl]benzimidazolium bromide]
Ki: 26 ± 2.7 µM
